Experimental data as given in patent US4614746A, “5-fluorobenzonitrile derivatives for increasing the lean meat to fat ratio and/or enhancing the growth rate of warm-blooded animals” (American Cyanamid Company, priority 1985, dated 1986).

Experiments:
[1] = biological target: T1, beta-1 adrenergic receptor (Meleagris gallopavo, UniProt P07700); experiment: Beta-1 adrenergic activity, (H3) dihydroalprenolol radioligand binding to erythrocyte membranes; set-up: species or system turkey and rat; settings: (H3) DHA, room temperature (23° C.), one hour; read-out: β1 K-50 (concentration required to displace 50% radioactive ligand from binding sites of beta adrenergic receptors)
T1 construct: Beta-1 adrenergic receptor membranes are isolated from turkey and rat erythrocytes; from tissue; host or cells: erythrocyte membranes from freshly drawn turkey blood (rat blood also given)
T1 sequence (P07700 whole entry): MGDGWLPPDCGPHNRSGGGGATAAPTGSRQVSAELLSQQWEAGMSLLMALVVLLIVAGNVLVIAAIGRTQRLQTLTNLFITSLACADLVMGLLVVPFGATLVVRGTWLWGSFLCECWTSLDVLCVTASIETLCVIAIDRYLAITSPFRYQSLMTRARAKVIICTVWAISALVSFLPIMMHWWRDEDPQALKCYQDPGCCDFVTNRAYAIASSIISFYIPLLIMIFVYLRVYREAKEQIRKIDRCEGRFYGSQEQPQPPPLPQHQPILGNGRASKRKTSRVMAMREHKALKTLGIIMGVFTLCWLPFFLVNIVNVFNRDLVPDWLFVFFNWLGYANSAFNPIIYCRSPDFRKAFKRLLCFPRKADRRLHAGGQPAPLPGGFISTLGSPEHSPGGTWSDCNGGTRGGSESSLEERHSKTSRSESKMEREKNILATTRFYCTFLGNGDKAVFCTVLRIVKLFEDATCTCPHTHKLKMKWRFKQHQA
Method: Beta-1 adrenergic activity of experimental compounds is identified by radioactive ligand-binding studies by using beta adrenergic receptor membranes and adrenergic antagonist (H3) dihydroalprenolol (DHA). Binding of (H3) DHA to membrane fractions is assayed by filtration on glass fiber filters. Specific binding is defined as total radioactivity bound minus nonspecific bound radioactivity, i.e., binding in the presence of 100 μM nonradioactive DHA. Results are expressed as the concentrations of the compound required to displace 50% radioactive ligand from binding of beta adrenergic receptors (K-50).
In these tests, beta adrenergic receptor membranes are incubated with radioactive dihydroalprenolol (H3 DHA) and experimental compounds. The bound radio-ligand is separated by filtration on glass fiber filters and counted by scintillation counter.
Radioactive ligand, H3 dihydroalprenolol (DHA) and aquasol are purchased from New England Nuclear Corporation, DMSO is supplied by J. T. Baker Company, and all other chemicals are obtained from Sigma Chemical Company.
Beta-1 adrenergic receptor membranes are isolated from turkey and rat erythrocytes respectively using the procedures of:
Freshly drawn heparinized whole blood from turkeys and rats is centrifuged for five minutes (4×500 g). The plasma is withdrawn; the remaining erythrocytes are suspended in 150 mM sodium chloride solutions and centrifuged. The cells are resuspended and centrifuged twice more. The cells are hemolyzed in 10 volume of cold distilled water containing 2 mM dithiothreitol, 100 μM phenylmethyl sulfonyl fluoride, 5 μg/mL leupeptin, 200 μg/mL bacitacin, 0.1% bovine serum albumin, and 10 units/mL aprotonin, and centrifuged at 3000×g for five minutes. The bottom gelatin layer is discarded. The top layer is suspended and centrifuged five times at 3000×g and resuspended in tris buffer (145 mM NaCl, 1 mM ethylene glycol-bis(β-aminoethyl ether) N,N,N,N, tetraacetic acid, 2 mM MgCl2, 10 mM tris, and 10% glycerol, pH 7.4). The resuspended membranes are further purified with differential centrifugation by using sucrose albumin cushion, and subsequently stored in small aliquots at -70° C. The protein concentration of receptor membranes is determined by the biuret method.
To duplicate incubation, tubes are added 200 μl suspended membranes (200 μg protein), 25 μl of compound in solution or buffer and 25 μl (H3) dihydroalprenolol (200,000 CPM). Tubes were incubated at room temperature (23° C.) for an hour and then filtered rapidly under vacuum through Whatman GF/B filters. The filters are rinsed three times with 5 mL of cold buffer (145 mM NaCl, 1 mM ethylenediaminetetraacetic acid, and 10 mM tris, pH 7.4) and subsequently counted by liquid scintillation counter in 10 mL of aquasol. Specific binding of H3 DHA is defined as the excess over blank containing 100 μM nonradioactive DHA. Six serial dilutions of each compound are tested.
Beta adrenergic activity is inversely related to K-50 (the concentrations of the compound required to displace 50% radioactive ligand from binding sites of beta adrenergic receptors, i.e., 50% binding) value.

[2] = in words; cited from earlier work

Work on `CCNCC(O)c1cc(F)cc(C#N)c1` (stereo not shown) [drawing 21] yielded an IC50 [1] of 3.04 µM.
`CC(C)N(CC(O)c1cc(F)cc(C#N)c1)C(C)C` (stereo not shown) [drawing 20] gave an IC50 [1] of 2.95 µM.
`CC(C)NCC(O)c1cc(F)cc(C#N)c1` (stereo not shown) [drawing 22] showed an IC50 [1] of 12.3 µM.
`CCCC(C)NCC(O)c1cc(F)cc(C#N)c1` (stereo not shown) [drawing 19] showed an IC50 [1] of 2.2 µM.
In the case of `CC(C)(C)NCC(O)c1cc(Cl)c(N)c(Cl)c1` (stereo not shown) [Clenbuterol], the bronchodilator activity [2] is given as “very effective bronchodilator” and the heart stimulant activity [2] is given as “potent heart”.
`CC(C)(C)NCC(O)c1cc(F)cc(C#N)c1` (stereo not shown) [drawing 23] gave an IC50 [1] of 16.6 µM.
